# Active and inactive are the calls of the source.
# Tests used:
# [1] = molecular target: COUP transcription factor 2 (Homo sapiens, UniProt P24468); test: Luminescence-based cell-based high throughput dose response assay to identify inhibitors of COUP-TFII (NR2F2).; assay type: functional;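 note: HEK293 cells transiently cotransfected with COUP-TFII expression vector and reporter; luciferase reporter luminescence driven by COUP-TFII from the pX2-168 reporter plasmid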
# [2] = cytotoxicity in MITF-independent A375 cells – cell-based, CellTiter-Glo luminescence, dry powder, set 4, counter-screen for MITF inhibitor project, dose response (AID 624364); assay type: functional; conditions: A-375;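 note: A375 melanoma cells are MITF independent so this is a counter screen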
# [3] = molecular target: Disintegrin and metalloproteinase domain-containing protein 17 (Homo sapiens, UniProt P78536); test: inhibition of ADAM17 substrate cleavage – biochemical, quenched FRET substrate, counter-screen for ADAM10 exosite inhibitor project, dose response (AID 743253)
# Streptococcus = test: GAS UMAA2166 growth inhibition – luminescence, BacTiterGlo, counter-screen for streptokinase expression inhibitor project, dose response (AID 1915); assay type: functional, organism-based;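 note: potency for reduction of bacterial viability or growth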
# [4] = Trypanosoma cruzi growth suppression in host cells – NIH3T3 host cells, beta-gal luminescence, confirmation (AID 2044); assay type: functional, cell-based;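 note: intracellular parasites grown in NIH/3T3 mouse fibroblasts as host cells; luminescent beta-galactosidase reporter signal from transgenic T. cruzi replicating inside host cells; inhibitors lower the luminescence signal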
# Streptokinase A = molecular target: T1, Streptokinase A (Streptococcus pyogenes serotype M1, UniProt P10520); test: viability-normalized secreted streptokinase activity reduction – plasminogen activation absorbance, OD405, dose response (AID 1914); assay type: functional, Streptococcus pyogenes M1 GAS;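 note: secreted streptokinase activity via plasminogen activation per viability signal from cell pellet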
# T1 sequence (P10520 whole entry): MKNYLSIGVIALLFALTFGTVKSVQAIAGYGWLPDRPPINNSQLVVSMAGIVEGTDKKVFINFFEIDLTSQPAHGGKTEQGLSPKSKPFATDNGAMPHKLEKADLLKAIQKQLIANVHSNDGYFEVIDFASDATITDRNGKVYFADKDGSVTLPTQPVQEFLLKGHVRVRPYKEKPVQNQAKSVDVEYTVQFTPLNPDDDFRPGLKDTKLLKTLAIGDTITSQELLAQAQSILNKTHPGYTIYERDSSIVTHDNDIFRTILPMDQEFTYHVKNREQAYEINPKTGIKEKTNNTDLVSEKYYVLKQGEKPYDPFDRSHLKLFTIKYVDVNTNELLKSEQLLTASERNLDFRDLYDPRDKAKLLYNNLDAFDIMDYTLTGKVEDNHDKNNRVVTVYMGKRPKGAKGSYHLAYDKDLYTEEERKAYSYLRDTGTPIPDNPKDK
# [5] = NIH3T3 cell viability loss – ATP luminescence, mouse fibroblasts, counter-screen, dose response (AID 2010); assay type: functional, cell-based;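 note: cells exposed to compound for about 90 hours before reading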
# [6] = Luminescence Cell-Based Dose Retest to Confirm Inhibitors of Cancer Stem Cells. [Related pubchem assays (depositor defined):AID2717, AID2721]; assay type: functional; conditions: Homo sapiens
# [7] = test system: Streptococcus sp. 'group A'; test: Streptococcus pyogenes SK(-)GAS viability under kanamycin – luminescence, BacTiterGlo, confirmation, counter-screen for streptokinase expression inhibitor project, dose response (AID 1900); assay type: functional, organism-based
# [8] = Late stage assay provider results from the probe development effort to identify inhibitors of the Plasmodium falciparum M18 Aspartyl Aminopeptidase (M18AAP): radiolabel-based cell-based dose response assay to identify compounds that inhibit P. falciparum growth in RBCs, Set 2..; assay type: functional
# [9] = HEK293 Cytotoxicity Assay Measured in Cell-Based System Using Plate Reader - 7071-01_Inhibitor_Dose_CherryPick_Activity_Set2.; assay type: functional
# HEK293 = test: viability loss in HEK293T cells – cell-based, ATP luminescence, cherry-pick samples, cytotoxicity control, dose response (AID 687005); assay type: functional; conditions: Homo sapiens;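 note: cells exposed to compound for 48 hours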
# [10] = molecular target: Adenosylmethionine-8-amino-7-oxononanoate aminotransferase (Mycobacterium tuberculosis, UniProt P9WQ81); test: Mycobacterium tuberculosis BioA enzyme inhibitor Measured in Biochemical System Using Plate Reader - 2163-02_Inhibitor_Dose_CherryPick_Activity.; assay type: functional, Mycobacterium tuberculosis UT205
# [11] = HEK293 cell viability loss – plate reader, cherry-pick, cytotoxicity control, dose response (AID 651899); assay type: functional, cell-based
# COUP transcription factor 2, sequence (P24468 whole entry): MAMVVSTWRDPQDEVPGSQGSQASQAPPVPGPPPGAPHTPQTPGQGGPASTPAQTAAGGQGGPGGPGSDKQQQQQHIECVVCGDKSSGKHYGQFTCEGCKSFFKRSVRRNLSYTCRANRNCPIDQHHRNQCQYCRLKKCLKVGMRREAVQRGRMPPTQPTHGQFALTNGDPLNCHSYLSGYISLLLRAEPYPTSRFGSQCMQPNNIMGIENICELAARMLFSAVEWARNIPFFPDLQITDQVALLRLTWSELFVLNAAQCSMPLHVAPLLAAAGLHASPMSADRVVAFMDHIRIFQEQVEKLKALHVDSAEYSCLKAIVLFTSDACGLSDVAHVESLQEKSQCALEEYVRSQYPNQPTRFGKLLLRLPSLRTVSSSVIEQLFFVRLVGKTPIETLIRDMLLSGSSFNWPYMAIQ
# Adenosylmethionine-8-amino-7-oxononanoate aminotransferase, sequence (P9WQ81 whole entry): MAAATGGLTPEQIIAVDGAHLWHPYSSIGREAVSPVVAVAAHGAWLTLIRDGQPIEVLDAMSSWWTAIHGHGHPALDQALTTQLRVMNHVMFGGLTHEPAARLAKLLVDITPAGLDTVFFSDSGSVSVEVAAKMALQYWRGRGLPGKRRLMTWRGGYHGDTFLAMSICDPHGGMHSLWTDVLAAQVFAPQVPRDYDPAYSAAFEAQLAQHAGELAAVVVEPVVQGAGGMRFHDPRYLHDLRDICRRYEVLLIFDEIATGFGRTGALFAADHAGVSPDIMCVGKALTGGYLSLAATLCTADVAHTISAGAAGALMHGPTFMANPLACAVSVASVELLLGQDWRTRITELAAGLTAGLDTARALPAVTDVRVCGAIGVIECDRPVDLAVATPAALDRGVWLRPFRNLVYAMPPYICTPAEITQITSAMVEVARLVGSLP
# Disintegrin and metalloproteinase domain-containing protein 17, sequence (P78536 whole entry, the tested form may be a part): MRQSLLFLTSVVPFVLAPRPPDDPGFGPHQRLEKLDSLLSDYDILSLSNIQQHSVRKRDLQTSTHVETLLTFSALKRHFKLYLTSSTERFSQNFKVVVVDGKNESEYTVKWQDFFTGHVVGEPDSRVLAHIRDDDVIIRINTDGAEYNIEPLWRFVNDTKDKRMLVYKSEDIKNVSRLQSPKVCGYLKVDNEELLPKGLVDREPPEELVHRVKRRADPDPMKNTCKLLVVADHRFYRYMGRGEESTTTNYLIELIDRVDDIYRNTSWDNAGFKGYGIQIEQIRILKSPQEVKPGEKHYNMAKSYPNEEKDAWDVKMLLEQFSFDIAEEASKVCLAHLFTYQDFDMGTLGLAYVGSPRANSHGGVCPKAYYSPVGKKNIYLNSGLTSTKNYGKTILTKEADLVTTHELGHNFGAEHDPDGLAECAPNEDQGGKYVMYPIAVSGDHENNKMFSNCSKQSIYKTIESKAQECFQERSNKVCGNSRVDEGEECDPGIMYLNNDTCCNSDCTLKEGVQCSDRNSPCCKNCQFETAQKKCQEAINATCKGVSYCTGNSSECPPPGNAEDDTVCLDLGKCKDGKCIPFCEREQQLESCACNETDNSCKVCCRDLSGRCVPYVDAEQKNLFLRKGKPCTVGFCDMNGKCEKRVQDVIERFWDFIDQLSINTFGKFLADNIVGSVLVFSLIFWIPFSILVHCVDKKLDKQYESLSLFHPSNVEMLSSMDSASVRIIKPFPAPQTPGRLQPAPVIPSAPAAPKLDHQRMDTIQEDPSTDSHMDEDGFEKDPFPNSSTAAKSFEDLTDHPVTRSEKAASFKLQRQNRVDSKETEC
smiles,measurement,setting,value
C=CCC1(CC=C)CCCN1C(=O)c1cc(COc2ccc(-n3cncn3)cc2)on1,IC50,[1],7.88 µM (active)
C=CCNC1=C(NC(=O)c2ccccc2)C(=O)c2ccccc2C1=O,AC50,[2],> 70 µM (inactive)
O=C(Nc1cccc(S(=O)(=O)Nc2ccc(Cl)cc2)c1)c1cc2c(s1)CCCC2,IC50,[3],> 69.5 µM (inactive)
same,EC50,Streptococcus,1.98 µM (active)
same,EC50,[4],1.09 µM (active)
same,EC50,Streptokinase A,5.01 µM (active)
same,EC50,[5],10.9 µM (active)
same,AC50,[6],2.28 µM (active)
same,EC50,[7],2.51 µM (active)
COc1ccc(CCNc2cncc3ccccc23)cc1OC,IC50,[8],4.5 µM (active)
CC(=O)c1ccc(N2CCN(C(=O)Cc3cccs3)CC2)cc1,AC50,[9],> 52 µM (inactive)
same,AC50,HEK293,> 52 µM (inactive)
same,AC50,[10],11.6 µM (active)
same,AC50,[11],3.82 µM (active)
